Data on four compounds can be found in PubChem BioAssay AID504426 (Johns Hopkins Ion Channel Center, 2011).

The assay deals with Voltage-dependent T-type calcium channel subunit alpha-1H (Homo sapiens) (UniProt O95180). The assay can be described thus: concentration-dependent block of Cav3.2 currents – automated patch clamp, HEK293 cells, mechanism study, dose response (AID 504426). As to conditions: Cav3.2-HEK293, automated patch clamp peak current; for current change, negative = inhibition: at 30 µM (top of the series).
Sequence of Voltage-dependent T-type calcium channel subunit alpha-1H (Homo sapiens) (O95180 whole entry, looked up): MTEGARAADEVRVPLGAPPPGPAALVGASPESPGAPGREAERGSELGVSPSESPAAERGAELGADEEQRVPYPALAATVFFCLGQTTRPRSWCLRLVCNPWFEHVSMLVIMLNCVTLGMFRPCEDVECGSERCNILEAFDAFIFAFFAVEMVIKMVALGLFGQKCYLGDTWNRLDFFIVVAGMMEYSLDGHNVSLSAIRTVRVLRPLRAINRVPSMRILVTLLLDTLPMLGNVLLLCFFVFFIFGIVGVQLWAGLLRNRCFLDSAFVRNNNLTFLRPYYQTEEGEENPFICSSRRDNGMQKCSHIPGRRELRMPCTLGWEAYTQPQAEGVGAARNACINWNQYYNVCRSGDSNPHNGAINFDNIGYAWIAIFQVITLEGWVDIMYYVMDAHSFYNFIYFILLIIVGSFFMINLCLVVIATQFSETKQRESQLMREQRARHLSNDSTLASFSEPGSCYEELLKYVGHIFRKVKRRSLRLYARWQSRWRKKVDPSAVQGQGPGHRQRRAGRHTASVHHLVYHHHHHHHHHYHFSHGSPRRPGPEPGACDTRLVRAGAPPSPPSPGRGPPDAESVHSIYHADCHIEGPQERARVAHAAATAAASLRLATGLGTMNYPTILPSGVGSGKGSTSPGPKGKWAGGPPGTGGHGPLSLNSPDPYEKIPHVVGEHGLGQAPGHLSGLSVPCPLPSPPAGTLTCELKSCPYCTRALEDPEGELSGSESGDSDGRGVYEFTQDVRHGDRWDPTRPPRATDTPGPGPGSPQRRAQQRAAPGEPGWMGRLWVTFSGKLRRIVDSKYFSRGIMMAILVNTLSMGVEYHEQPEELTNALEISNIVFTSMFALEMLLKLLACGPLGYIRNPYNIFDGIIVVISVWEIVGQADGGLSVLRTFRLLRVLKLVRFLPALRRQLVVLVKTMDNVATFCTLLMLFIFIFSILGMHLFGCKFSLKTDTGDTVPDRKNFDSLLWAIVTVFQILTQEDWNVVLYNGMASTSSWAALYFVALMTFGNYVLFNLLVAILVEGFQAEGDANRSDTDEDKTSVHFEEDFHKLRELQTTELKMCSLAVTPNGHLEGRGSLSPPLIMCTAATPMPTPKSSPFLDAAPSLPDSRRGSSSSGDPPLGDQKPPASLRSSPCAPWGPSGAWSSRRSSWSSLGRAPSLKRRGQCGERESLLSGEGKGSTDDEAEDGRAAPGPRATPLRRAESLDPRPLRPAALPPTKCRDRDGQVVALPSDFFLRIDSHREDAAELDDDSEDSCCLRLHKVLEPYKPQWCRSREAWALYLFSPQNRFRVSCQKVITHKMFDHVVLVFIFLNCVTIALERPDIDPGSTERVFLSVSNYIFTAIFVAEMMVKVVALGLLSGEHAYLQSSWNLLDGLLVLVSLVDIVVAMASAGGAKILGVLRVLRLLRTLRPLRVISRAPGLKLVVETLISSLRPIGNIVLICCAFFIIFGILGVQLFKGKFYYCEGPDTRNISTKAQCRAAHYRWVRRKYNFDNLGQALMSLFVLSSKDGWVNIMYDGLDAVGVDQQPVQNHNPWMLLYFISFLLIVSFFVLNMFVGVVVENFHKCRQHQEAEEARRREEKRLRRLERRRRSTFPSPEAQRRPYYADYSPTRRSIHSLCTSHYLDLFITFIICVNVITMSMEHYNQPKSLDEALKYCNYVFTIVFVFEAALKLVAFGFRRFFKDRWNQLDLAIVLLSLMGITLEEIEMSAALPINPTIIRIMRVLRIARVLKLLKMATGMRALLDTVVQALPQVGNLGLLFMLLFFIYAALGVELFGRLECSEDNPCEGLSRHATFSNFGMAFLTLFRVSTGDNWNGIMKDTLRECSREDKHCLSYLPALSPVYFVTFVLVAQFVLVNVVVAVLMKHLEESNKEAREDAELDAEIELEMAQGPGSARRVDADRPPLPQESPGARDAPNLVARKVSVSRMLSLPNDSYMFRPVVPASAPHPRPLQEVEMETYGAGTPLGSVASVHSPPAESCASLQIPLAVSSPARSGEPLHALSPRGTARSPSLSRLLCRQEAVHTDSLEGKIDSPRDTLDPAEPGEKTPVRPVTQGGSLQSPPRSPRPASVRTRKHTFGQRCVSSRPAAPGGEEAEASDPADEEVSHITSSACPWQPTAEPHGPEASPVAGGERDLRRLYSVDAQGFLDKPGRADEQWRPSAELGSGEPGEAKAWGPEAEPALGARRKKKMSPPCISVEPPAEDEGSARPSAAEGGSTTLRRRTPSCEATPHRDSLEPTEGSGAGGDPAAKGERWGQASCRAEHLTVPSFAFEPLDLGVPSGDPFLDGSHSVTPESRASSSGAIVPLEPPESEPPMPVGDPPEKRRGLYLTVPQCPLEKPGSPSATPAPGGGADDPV

The source made the active and inactive calls.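 Rule for the calls: active = channel current reduced at one or more tested doses, with a fitted dose-response curve; inactive = no curve fitted, or no current reduction at any dose.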

For `CC(C)(C)CCN1C[C@@H]2C(CNC(=O)c3cc(Cl)cc(Cl)c3)[C@@H]2C1` (some centres undefined), the IC50 is 0.31 µM. For the compound `CC(C)(C)Cc1nnc(NC(=O)COc2ccc(Cl)cc2Cl)o1`, the “current change, negative = inhibition” value is “inactive”. For the compound `O=C(COc1ccc(F)cc1Cl)Nc1nnc(-c2ccc(F)c(F)c2)o1`, the IC50 is 13.5 µM. With `Cc1ccc(-c2nnc(NC(=O)COc3ccc(F)cc3Cl)o2)cc1C`, the “current change, negative = inhibition” value is “inactive”.

In general, IC50 refers to the midpoint of a concentration-inhibition curve.
